# Assay results published in publication PMC6053381, “Novel 2-phenyloxypyrimidine derivative induces apoptosis and autophagy via inhibiting PI3K pathway and activating MAPK/ERK signaling in hepatocellular carcinoma cells” (Scientific Reports, 2018).
# pIC50: −log10 of the molar value. Read-outs that look alike come from different tables or passages of the source.
# Tests used:
# [1] = biological target: PDGFRα (Homo sapiens, UniProt P16234); test: PDGFR kinase assay, Caliper microfluidic mobility shift; type: biochemical; details: compound at 1 µM, averages of two separate experiments
# PDGFRα, sequence (P16234 24-1089): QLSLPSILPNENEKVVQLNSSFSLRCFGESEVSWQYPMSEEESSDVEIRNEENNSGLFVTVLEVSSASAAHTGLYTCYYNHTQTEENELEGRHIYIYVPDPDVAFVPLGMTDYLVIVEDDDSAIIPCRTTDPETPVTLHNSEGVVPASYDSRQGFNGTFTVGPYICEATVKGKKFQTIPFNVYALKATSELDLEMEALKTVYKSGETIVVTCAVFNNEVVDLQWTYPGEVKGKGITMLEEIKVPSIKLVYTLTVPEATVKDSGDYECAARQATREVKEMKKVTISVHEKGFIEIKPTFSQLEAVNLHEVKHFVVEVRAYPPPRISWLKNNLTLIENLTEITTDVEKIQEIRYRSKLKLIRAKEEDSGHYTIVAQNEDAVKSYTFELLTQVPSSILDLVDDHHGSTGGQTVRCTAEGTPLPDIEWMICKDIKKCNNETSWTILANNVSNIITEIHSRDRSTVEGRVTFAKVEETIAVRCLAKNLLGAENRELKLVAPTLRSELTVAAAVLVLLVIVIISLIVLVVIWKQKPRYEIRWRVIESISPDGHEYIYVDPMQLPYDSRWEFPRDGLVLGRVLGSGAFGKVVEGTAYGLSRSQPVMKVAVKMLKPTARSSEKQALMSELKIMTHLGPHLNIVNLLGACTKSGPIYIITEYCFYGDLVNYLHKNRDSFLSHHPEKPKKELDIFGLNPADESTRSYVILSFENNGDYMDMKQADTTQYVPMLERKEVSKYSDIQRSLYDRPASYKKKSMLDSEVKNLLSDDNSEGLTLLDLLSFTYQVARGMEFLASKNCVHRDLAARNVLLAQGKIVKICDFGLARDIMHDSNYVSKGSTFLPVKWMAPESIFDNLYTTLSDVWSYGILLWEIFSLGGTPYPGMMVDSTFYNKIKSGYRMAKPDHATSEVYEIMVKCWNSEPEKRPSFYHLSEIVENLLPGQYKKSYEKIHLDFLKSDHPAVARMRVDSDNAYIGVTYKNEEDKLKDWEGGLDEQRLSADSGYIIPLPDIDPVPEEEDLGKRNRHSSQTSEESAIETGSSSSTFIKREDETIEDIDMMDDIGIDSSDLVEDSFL
# Experimental: (§1) In vitro inhibitory activities of all compounds at 1 μM against PDGFRα and PDGFRβ were evaluated using Caliper microfluidic mobility shift technology. […] At the same concentration, only E5 inhibited greater than 50% of PDGFRβ activity (Fig. 2B).
# (§2) PDGFR kinase activity was measured using Caliper microfluidic mobility shift technology. Briefly, 2 μL compound solution (25 μM) in 25% DMSO per well were added into the 384 well microtiter plates. Then, 10 μL per well of enzyme solution (100 mM HEPES, 10 mM MgCl2, Brij35 (30%) 100 μL, 1 mM DTT, 20 ng enzyme) was added. After a brief centrifugation at 1,000 rpm, the kinase reactions were started by addition of 38 μL per well of peptide/ATP-solution (40 μM ATP, 6.5 μM peptide 5′-FAM-KKKKEEIYFFF-NH2, Tris-HCl buffer, pH 7.0) incubated at 30 °C for 60 min and stopped by the addition of 20 μL 35 mM EDTA per well. The electrophoretic separation of the phosphorylated and non-phosphorylated peptides was then carried out on LabChip EZ Reader II (Caliper Life Sciences). All other kinase reactions were carried out as previously reported using the Kinase-Glo Plus or ADP-Glo assay. Kinase inhibition rates were calculated per manufacturer’s instructions.
# [2] = biological target: PDGFRβ (Homo sapiens, UniProt P09619); test: as above; type: biochemical; details: compound at 1 µM, averages of two separate experiments
# PDGFRβ, sequence (P09619 33-1106): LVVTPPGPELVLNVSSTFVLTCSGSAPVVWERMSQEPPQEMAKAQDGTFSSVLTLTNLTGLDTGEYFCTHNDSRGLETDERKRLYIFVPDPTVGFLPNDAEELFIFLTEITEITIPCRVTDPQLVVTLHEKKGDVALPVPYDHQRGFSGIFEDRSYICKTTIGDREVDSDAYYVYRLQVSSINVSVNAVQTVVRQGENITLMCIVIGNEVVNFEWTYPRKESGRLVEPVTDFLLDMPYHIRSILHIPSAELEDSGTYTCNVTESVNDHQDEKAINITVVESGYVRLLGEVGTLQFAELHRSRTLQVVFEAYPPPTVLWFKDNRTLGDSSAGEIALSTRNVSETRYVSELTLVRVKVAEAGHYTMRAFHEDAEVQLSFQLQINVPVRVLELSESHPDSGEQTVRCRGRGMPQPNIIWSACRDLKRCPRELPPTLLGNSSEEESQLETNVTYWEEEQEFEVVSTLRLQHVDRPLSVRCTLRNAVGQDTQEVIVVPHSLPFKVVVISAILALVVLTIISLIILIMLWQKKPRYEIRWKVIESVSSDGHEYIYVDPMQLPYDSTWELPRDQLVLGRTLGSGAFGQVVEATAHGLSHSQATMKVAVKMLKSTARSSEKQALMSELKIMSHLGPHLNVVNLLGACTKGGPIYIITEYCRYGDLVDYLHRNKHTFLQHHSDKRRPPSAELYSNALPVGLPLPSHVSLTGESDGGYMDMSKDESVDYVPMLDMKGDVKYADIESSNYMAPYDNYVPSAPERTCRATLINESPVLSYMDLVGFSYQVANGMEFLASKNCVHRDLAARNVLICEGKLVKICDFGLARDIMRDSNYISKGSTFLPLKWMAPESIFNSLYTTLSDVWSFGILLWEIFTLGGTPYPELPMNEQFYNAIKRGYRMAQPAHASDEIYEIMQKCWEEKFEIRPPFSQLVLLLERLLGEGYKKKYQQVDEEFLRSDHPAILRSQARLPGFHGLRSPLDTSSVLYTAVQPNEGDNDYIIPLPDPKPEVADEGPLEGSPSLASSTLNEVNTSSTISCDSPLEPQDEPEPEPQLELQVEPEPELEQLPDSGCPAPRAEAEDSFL
# Experimental: as §1, §2
# [3] = system: BEL7404; test: CellTiter-Glo luminescent cell viability assay; type: cell-based; details: read-out: Anti-proliferative activity IC50 BEL7404
# Text: (§3) The in vitro antitumor activity of all compounds was screened against six HCC cell lines by CellTiter-Glo luminescent cell viability assay as described earlier. […] After a comprehensive assessment of PDGFR inhibition, cellular activity against HCC cells as well as potential druggability, E5 was chosen to investigate its kinase profiling, antitumor activity and molecular mechanism in the following study. […]
# (§4) authenticated by using short tandem repeat (STR) matching analysis. No mycoplasma contamination was detected.
# (§5) CellTiter-Glo luminescent cell viability assay
# (§6) For experiments hepatocellular carcinoma cells were seeded at 4000 cells per well in 96-well plates. After overnight incubation, solution of compounds in DMSO at various concentrations were added to the cells and further incubated for 120 h. Cell viability was measured with the CellTiter-Glo Luminescent Cell Viability Assay (Promega) according to the manufacturer’s instructions. Luminescence was measured using an EnVision Multilabel Plate Reader (Perkin-Elmer). The cytotoxicity of the compounds was expressed as the percent age of luminescence relative to that of untreated cells . The concentration of compound producing 50% of cell proliferation (IC50) was calculated by nonlinear regression analysis of the response-concentration (log) curve, using the Graph-Pad Prism program package (Graph Pad Software; San Diego, CA). Results are expressed as the means of two […] experiments
# [4] = system: Hep3B; test: CellTiter-Glo luminescent cell viability assay; type: cell-based; details: 120 h incubation, read-out: Anti-proliferative activity IC50 Hep3B
# Text: as §3, §4, §5, §6
# [5] = system: MHCC97-L; test: CellTiter-Glo luminescent cell viability assay; type: cell-based; details: 120 h incubation, read-out: Anti-proliferative activity IC50 MHCC97-L
# Text: as §3, §4, §5, §6
# [6] = system: QGY-7703; test: CellTiter-Glo luminescent cell viability assay; type: cell-based; details: read-out: Anti-proliferative activity IC50 QGY-7703
# Text: as §3, §4, §5, §6
# [7] = system: SMMC-7721; test: CellTiter-Glo luminescent cell viability assay; type: cell-based; details: read-out: Anti-proliferative activity IC50 SMMC-7721
# Text: as §3, §4, §5, §6
# [8] = system: SNU368; test: CellTiter-Glo luminescent cell viability assay; type: cell-based; details: 120 h incubation, read-out: Anti-proliferative activity IC50 SNU368
# Text: as §3, §4, §5, §6
SMILES,inhibition at 1 µM ([1]; read-out: Inhibition effect (%) PDGFRα),inhibition at 1 µM ([2]; read-out: Inhibition effect (%) PDGFRβ),"pIC50 ([3]; Homo sapiens, BEL-7404, 120 h incubation)","pIC50 ([4]; Homo sapiens, Hep3B)",pIC50 ([5]; MHCC97L),"pIC50 ([6]; Homo sapiens, QGY-7703, 120 h incubation)","pIC50 ([7]; Homo sapiens, SMMC-7721, 120 h incubation)",pIC50 [8],Inhibition effect (%) PDGFRβ [2],pIC50 ([3]; 120 h incubation),pIC50 [4],pIC50 [5],pIC50 ([6]; 120 h incubation),pIC50 ([7]; 120 h incubation),Inhibition effect (%) PDGFRα [1]
Cc1ccc(N)cc1Oc1nccc(-c2cccnc2)n1 [A1],39.1%,21.4%,4.97,4.80,4.82,4.61,4.87,4.07,,,,,,,
Cc1ccc(NC(=O)Cc2ccccc2)cc1Oc1nccc(-c2cccnc2)n1 [A2],,,,,,,,3.95,40.73%,4.41,4.40,< 3.70,4.22,4.07,
Cc1ccc(C(=O)Nc2ccc(C)c(Oc3nccc(-c4cccnc4)n3)c2)cc1 [A3],,,,,,,,4.29,45.50%,4.48,4.67,4.65,4.33,4.60,45.45%
Cc1cccc(C(=O)Nc2ccc(C)c(Oc3nccc(-c4cccnc4)n3)c2)c1 [A4],,,,,,,,4.27,43.74%,4.91,4.76,4.61,4.40,4.76,
COc1ccc(C(=O)Nc2ccc(C)c(Oc3nccc(-c4cccnc4)n3)c2)cc1 [A5],,,,,,,,4.31,33.70%,4.81,4.63,4.50,4.39,4.63,45.20%
Cc1ccc(NC(=O)c2ccc(Cl)cc2)cc1Oc1nccc(-c2cccnc2)n1 [A6],,,,,,,,4.62,35.96%,5.02,4.97,4.79,4.66,4.91,47.73%
Cc1ccc(NC(=O)c2cccc(Cl)c2)cc1Oc1nccc(-c2cccnc2)n1 [A7],,,,,,,,4.34,40.23%,4.48,4.72,4.29,4.24,4.57,
Cc1ccc(NC(=O)c2ccc([N+](=O)[O-])cc2)cc1Oc1nccc(-c2cccnc2)n1 [A8],,,,,,,,4.59,43.24%,4.70,4.84,4.46,4.61,5.00,
Cc1ccc(NC(=O)c2cccc([N+](=O)[O-])c2)cc1Oc1nccc(-c2cccnc2)n1 [A9],,,,,,,,4.29,23.41%,4.62,4.55,4.27,4.32,4.57,23.63%
Cc1ccc(NC(=O)c2ccc(F)cc2)cc1Oc1nccc(-c2cccnc2)n1 [A10],,,,,,,,4.41,30.94%,4.55,4.70,4.45,4.36,4.68,40.63%
Cc1ccc(NC(=O)c2cccnc2)cc1Oc1nccc(-c2cccnc2)n1 [A11],,,,,,,,4.02,6.84%,4.13,3.98,4.05,3.60,4.10,42.91%
Cc1ccc(NC(=O)c2ccncc2)cc1Oc1nccc(-c2cccnc2)n1 [A12],,,,,,,,3.54,31.94%,3.87,3.89,3.55,3.77,3.95,43.17%
Cc1ccc(NC(=O)c2ccccc2)cc1Oc1nccc(-c2ccccc2)n1 [B1],,,,,,,,4.75,12.87%,4.98,5.57,5.31,5.24,5.57,2.32%
Cc1ccc(NC(=O)Cc2ccccc2)cc1Oc1nccc(-c2ccccc2)n1 [B2],,,,,,,,4.61,17.63%,4.84,4.89,4.77,4.69,4.93,21.09%
Cc1ccc(C(=O)Nc2ccc(C)c(Oc3nccc(-c4ccccc4)n3)c2)cc1 [B3],,,,,,,,4.89,26.17%,5.43,5.34,5.21,5.14,5.22,23.12%
Cc1cccc(C(=O)Nc2ccc(C)c(Oc3nccc(-c4ccccc4)n3)c2)c1 [B4],,,,,,,,4.89,24.42%,5.02,5.19,5.15,4.99,5.21,35.04%
COc1ccc(C(=O)Nc2ccc(C)c(Oc3nccc(-c4ccccc4)n3)c2)cc1 [B5],,,,,,,,4.80,19.39%,5.10,5.04,5.01,4.83,5.08,1.81%
Cc1ccc(NC(=O)c2ccoc2)cc1Oc1nccc(-c2cc3ccccc3o2)n1 [E4],,,,,,,,4.94,7.35%,5.28,4.80,,,6.40,27.18%
